# Experimental data taken from publication PMC5607274, “An iterative compound screening contest method for identifying target protein inhibitors using the tyrosine-protein kinase Yes” (Scientific Reports, 2017).
# Molecular target: T1, human recombinant Yes [a.a. 2–543 (end)] (Homo sapiens, UniProt P07947)
# T1 construct: human recombinant Yes [a.a; 2–543 (end)]; purchased BPS Bioscience 40488
# Test: ADP-Glo kinase assay, inhibition rates of Yes phosphorylation activity (first and second screening)
# Format: biochemical
# Details: first screening; mean of n = 4 wells; 10 μmol L−1 compound
# In short: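 Hits from a first pass were rescreened after re-dissolution from fresh powder. The first pass reported the mean inhibition rate of quadruplicate wells per compound. Activity was that of recombinant human Yes [a.a. 2–543] kinase, read out with the ADP-Glo ADP-detection method.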
# T1 sequence (P07947 2-543): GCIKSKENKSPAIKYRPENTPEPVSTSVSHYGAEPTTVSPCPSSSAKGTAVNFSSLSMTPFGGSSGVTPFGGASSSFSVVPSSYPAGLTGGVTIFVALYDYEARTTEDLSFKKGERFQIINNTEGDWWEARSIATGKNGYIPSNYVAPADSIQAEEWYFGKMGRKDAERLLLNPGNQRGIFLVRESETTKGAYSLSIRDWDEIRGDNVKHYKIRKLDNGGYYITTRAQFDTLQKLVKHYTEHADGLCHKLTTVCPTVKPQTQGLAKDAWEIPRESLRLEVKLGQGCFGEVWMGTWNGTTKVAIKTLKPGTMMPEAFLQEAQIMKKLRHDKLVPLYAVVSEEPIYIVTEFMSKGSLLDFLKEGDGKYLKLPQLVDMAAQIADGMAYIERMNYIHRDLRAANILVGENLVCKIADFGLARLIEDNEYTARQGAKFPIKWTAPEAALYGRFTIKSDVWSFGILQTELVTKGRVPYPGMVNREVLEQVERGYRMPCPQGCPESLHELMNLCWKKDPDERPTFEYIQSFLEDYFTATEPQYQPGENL
row,Compound,First screening IR (inhibition rate) [%]
1,FC(F)(F)c1ccnc(Nc2ccc(N3CCCC3)nc2)n1 [Compound Z319012342],-5
2,CN(C)c1ccc(Nc2nccc(C(F)(F)F)n2)cn1 [Compound Z319012738],2
3,O=C(c1ccc(Nc2nccc(C(F)(F)F)n2)cc1)N1CCCC1 [Compound Z319025642],-36
4,CC(C)c1ccc(C(=O)N2CCN(c3ccc(C#N)cn3)CC2)cc1 [Compound Z319076580],-2
5,Cn1ncc2c(N3CCOC(c4ccc(F)cc4)C3)ncnc21 (stereo not shown) [Compound Z319092016],-2
6,O=C(/C=c1/[nH]c(=O)/c(=C\c2ccc(Cl)cc2)s1)c1ccncc1 [Compound Z319403812],8
7,NC(=O)c1ccc(CN(C2CC2)S(=O)(=O)c2cccc(Cl)c2)cc1 [Compound Z319895028],-5
8,NC(=O)C(NCCCN1CCc2ccccc21)c1ccccc1 (stereo not shown) [Compound Z320065982],-17
9,O=C(Nc1ccc(F)cc1)c1nnc(CSc2ncc(-c3ccccc3)[nH]2)s1 [Compound Z325218452],0
10,CN(C)c1nc(N)nc(CSCCC(=O)Nc2ccccc2)n1 [Compound Z327260972],-8
11,CN(Cc1ccc(C(=O)NCC(F)(F)F)cc1)c1cc(Cl)nc(N)n1 [Compound Z328693166],10
12,CC(c1cc2ccccc2o1)N(C)c1ncnc2c1cnn2C (stereo not shown) [Compound Z328694162],-5
13,Cn1ncc2c(N(Cc3ccccc3F)C3CC3)ncnc21 [Compound Z328694806],-21
14,CC(c1ccc(F)c(F)c1)N(C)c1ncnc2c1cnn2C (stereo not shown) [Compound Z328694928],-1
15,COC(=O)c1cc(-c2ccc(OC)cc2)nc2c1c(C)nn2CCC#N [Compound Z328815354],24
16,CCc1c(C(=O)Nc2n[nH]c(-c3ccc(C)cc3)n2)cnn1-c1ccccc1 [Compound Z332932578],1
17,COc1ccc(-c2nc(NC(=O)c3ccc(NC(=O)c4ccccc4)cc3)n[nH]2)cc1 [Compound Z332936670],14
18,O=C(NCc1cn2ccsc2n1)C1CC1c1ccccc1C(F)(F)F (stereo not shown) [Compound Z333170264],-2
19,COc1ccc(/C(O)=C2\C(=O)C(=O)N(CCCn3ccnc3)C2c2cccnc2)cc1OC (stereo not shown) [Compound Z335452550],-9
20,CC(NC(c1ccccc1)c1ccccn1)c1ccncc1 (stereo not shown) [Compound Z335491150],3
21,O=C(CSc1ccc(S(=O)(=O)N2CCCC2)cn1)c1ccc2c(c1)OCO2 [Compound Z335869204],12
22,O=c1cc(-c2ccccc2)c2cc(Cl)c(OCCO)cc2o1 [Compound Z335913836],15
23,CC(C)(C)c1nc(SCC(=O)c2ccc3c(c2)CCC3)n[nH]1 [Compound Z335958518],-7
24,Cn1nccc1/C=C1\C(=O)Nc2ccccc21 [Compound Z336032014],2

row,Compound,First screening IR (inhibition rate) [%]
1,CC(C)n1ncc2cc(/C=C3/CN(C)Cc4c3nc3ccccc3c4C(=O)O)c(Cl)nc21 [Compound Z336032562],54
2,CCCn1c(=O)[nH]c(=O)c2c(C(=O)Nc3ccccc3N3CCOCC3)cc(C3CC3)nc21 [Compound Z337770612],-5
3,CC(C)Cn1c(=O)[nH]c(=O)c2c(C(=O)NCc3ccc(CN4CCOCC4)cc3)cc(C3CC3)nc21 [Compound Z338592020],6
4,O=c1c([N+](=O)[O-])c(NCCCn2ccnc2)c2ccccc2n1-c1ccccc1 [Compound Z339024634],-22
5,O=C(Nn1cnc2ccccc21)c1cnn(-c2ccccc2F)c1-n1cccc1 [Compound Z339292340],11
6,O=C(Nc1ccc2ccccc2n1)c1ccc(OCc2cccnc2)cc1 [Compound Z339583070],-12
7,N#Cc1ccccc1CSCCNC(=O)N1CCN(c2ncc(C(F)(F)F)cc2Cl)CC1 [Compound Z352490104],-2
8,CN(CCCC(=O)O)S(=O)(=O)c1cc(S(C)(=O)=O)ccc1Cl [Compound Z353969056],44
9,CS(=O)(=O)c1ccc(Cl)c(S(N)(=O)=O)c1 [Compound Z353972988],2
10,CCC1CCCCN1S(=O)(=O)c1cc(S(C)(=O)=O)ccc1Cl (stereo not shown) [Compound Z355127288],7
11,CC1CC(C)CN(S(=O)(=O)c2cc(S(C)(=O)=O)ccc2Cl)C1 (stereo not shown) [Compound Z355129038],12
12,Cc1ccc(-c2cc(C(=O)OCc3nc(C(C)(C)C)no3)n[nH]2)s1 [Compound Z355654248],12
13,Cc1nc2c(cc1C(=O)NCCNc1ccccc1[N+](=O)[O-])c(C)nn2C [Compound Z355820588],-9
14,Cc1cc(NC(=O)C(C)SCC(=O)Nc2ccc(SC3CCCC3)cc2)no1 (stereo not shown) [Compound Z357095098],-13
15,CN(C1CCCCC1)S(=O)(=O)N1CCN(c2cn[nH]c(=O)c2Cl)CC1 [Compound Z357945110],-10
16,C=CCn1c(-c2ccc(Cl)cc2)nn(CN2CCN(C(=O)c3ccccc3F)CC2)c1=S [Compound Z358275910],5
17,CN1CCCN(c2nc(C(F)(F)F)nc3c2cnn3Cc2ccccc2)CC1 [Compound Z359311942],-23
18,CCN(CC)C(=O)CN1CCCN(c2ncnc3c2cnn3C)CC1 [Compound Z359324360],-4
19,O=C(Nc1cccc(Cn2ccnc2)c1)c1cc2c(s1)-c1ccccc1OC2 [Compound Z362662212],6
20,O=C(COc1ccc(Br)cc1)Nc1cccc(Cn2ccnc2)c1 [Compound Z362662788],8
21,Cc1ccc(-n2ncc(C(=O)Nc3ccccc3F)c2C2CC2)cc1Cl [Compound Z363094390],-5
22,O=C(NCc1ccc(-n2ccnc2)nc1)c1ccc(-c2ccccc2)cc1 [Compound Z363639532],3
23,O=C(/C=C/c1ccc(Br)o1)Nc1ccc(S(=O)(=O)C2CCCC2)cc1 [Compound Z364474850],0
24,Cc1cc(C(=O)Nc2ccc3c(c2)CCC3)ccc1-n1cnnn1 [Compound Z365246124],9

row,Compound,First screening IR (inhibition rate) [%]
1,O=C(c1ccc(=O)[nH]c1)N1CCN(C(=O)c2cc3ccccc3o2)CC1 [Compound Z368093014],48
2,NC(=O)c1cc(NC(=O)c2cc(-c3ccccc3Cl)n[nH]2)ccc1F [Compound Z368298320],-18
3,CCC(CC)N(C)S(=O)(=O)c1ccc(S(N)(=O)=O)cc1 [Compound Z369246436],-4
4,O=C(NCc1ccccc1)Nc1ccc2oc(C3CC3)nc2c1 [Compound Z369933958],11
5,CC(=O)N1CCN(c2nc(C(F)(F)F)nc3ccsc23)CC1 [Compound Z370715150],6
6,O=C1CN(c2nc(C(F)(F)F)nc3ccsc23)CCN1 [Compound Z370715174],26
7,O=C(Nc1cccc2ncccc12)c1ccc(=O)n(-c2ccc(F)cc2)n1 [Compound Z370787214],43
8,O=C(c1ccoc1)N1CCN(c2ncnc3cc(-c4ccc(F)cc4)sc23)CC1 [Compound Z373317194],48
9,N#Cc1ccc(NC(=O)c2ccn(-c3ccc(F)cc3)n2)cc1 [Compound Z381174904],44
10,Cc1nnc(NC(=O)C2CC(c3cccc(F)c3)=NO2)s1 (stereo not shown) [Compound Z381180216],-5
11,Cc1ccc(-c2nc(N)sc2C)s1 [Compound Z381381388],-1
12,COc1ccccc1C(=O)N=Nc1c(O)[nH]c2ccc(C)cc12 [Compound Z381428874],15
13,Cc1sc2nc(CN3CCC(C)CC3)nc(N3CCN(C(=O)c4ccccc4O)CC3)c2c1C [Compound Z381659312],-12
14,NC(=O)Nc1ccc(NC(=O)Cc2csc(Cc3ccccc3)n2)cc1 [Compound Z383135670],-14
15,O=C(Cc1csc(Cc2ccccc2)n1)Nc1cccc(Cn2ccnc2)c1 [Compound Z383523130],46
16,O=C(Nc1cccc(COc2cccc(F)c2)c1)c1ccc(=O)[nH]n1 [Compound Z383786992],-2
17,CC(CCN1CCN(c2ccccc2)CC1)NC(=O)c1cc(-c2ccco2)nc2c1cnn2C(C)C (stereo not shown) [Compound Z385234634],62
18,Cc1ccc(S(C)(=O)=O)cc1S(N)(=O)=O [Compound Z385450636],26
19,CC(=O)Nc1ccc(SCc2noc(-c3cccc(C)c3)n2)cc1 [Compound Z388276110],12
20,Cc1nc2cc(NC(=O)c3cc(C)n(-c4cccnc4)c3C)ccc2o1 [Compound Z395169542],6
21,Cc1noc2ncc(C(=O)NCc3cccc(Cn4ccnc4)c3)cc12 [Compound Z395825976],-16
22,COc1cc(CNC(=O)C2CCCN2C(C)=O)ccc1OCc1cccnc1 (stereo not shown) [Compound Z396609184],7
23,FC(F)(F)c1ccnc(Nc2cn[nH]c2)n1 [Compound Z397745198],2

# Same assay, conditions: second screening, dissolved from fresh powder; n = 4; 10 μmol L−1 compound
row,Compound,Second screening IR (inhibition rate) [%]
1,CC(C)n1ncc2cc(/C=C3/CN(C)Cc4c3nc3ccccc3c4C(=O)O)c(Cl)nc21 [Compound Z336032562],-2
2,CC(CCN1CCN(c2ccccc2)CC1)NC(=O)c1cc(-c2ccco2)nc2c1cnn2C(C)C (stereo not shown) [Compound Z385234634],1
